Results reported in publication PMC3504108 (PLoS ONE, 2012).

Assays:
[1] = target: T1, Sirt5 (Homo sapiens, UniProt Q9NXA8); assay: ELISA-based deacetylation assay (weak inhibition, Figure S3B); type: biochemical
T1 construct: catalytic core, residues 34–302
T1 sequence (Q9NXA8 34-302): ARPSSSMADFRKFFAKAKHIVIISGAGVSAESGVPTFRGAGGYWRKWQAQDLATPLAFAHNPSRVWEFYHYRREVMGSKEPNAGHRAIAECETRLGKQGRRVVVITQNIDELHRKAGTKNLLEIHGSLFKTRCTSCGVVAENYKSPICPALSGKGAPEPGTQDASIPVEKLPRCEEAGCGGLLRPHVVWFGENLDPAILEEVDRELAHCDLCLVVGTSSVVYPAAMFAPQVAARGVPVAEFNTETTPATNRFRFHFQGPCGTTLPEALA

[2] = target: T2, Sirt3 (Homo sapiens, UniProt Q9NTG7); assay: ELISA-based deacetylation assay (Figure S3B); type: biochemical
T2 sequence (Q9NTG7 102-399): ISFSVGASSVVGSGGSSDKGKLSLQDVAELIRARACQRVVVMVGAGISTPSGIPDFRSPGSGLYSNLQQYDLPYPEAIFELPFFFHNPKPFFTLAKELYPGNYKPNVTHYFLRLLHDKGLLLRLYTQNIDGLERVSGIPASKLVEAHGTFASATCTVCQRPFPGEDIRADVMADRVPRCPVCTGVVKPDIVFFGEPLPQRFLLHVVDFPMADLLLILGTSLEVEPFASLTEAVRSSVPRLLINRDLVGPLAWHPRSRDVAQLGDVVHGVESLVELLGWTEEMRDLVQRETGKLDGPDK

[3] = target: T1, Sirt5; assay: FdL1 fluorogenic deacetylation assay (activation dose-response); type: biochemical
[4] = target: T3, Sirt3 (Homo sapiens, UniProt Q9NTG7); assay: X-ray crystal structure ([…] Å, ternary with FdL1 peptide), plus FdL2 deacetylation inhibition; type: binding
T3 construct: catalytic core, residues 118–399
T3 sequence (Q9NTG7 118-399): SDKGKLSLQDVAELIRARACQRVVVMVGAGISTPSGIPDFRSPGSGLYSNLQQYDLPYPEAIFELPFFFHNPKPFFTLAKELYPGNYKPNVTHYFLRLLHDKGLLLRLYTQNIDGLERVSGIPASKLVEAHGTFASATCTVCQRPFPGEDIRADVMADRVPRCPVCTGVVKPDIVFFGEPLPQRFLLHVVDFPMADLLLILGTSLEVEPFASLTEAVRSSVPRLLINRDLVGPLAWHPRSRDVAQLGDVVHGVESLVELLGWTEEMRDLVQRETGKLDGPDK

[5] = target: T1, Sirt5; assay: Cytochrome c deacetylation ELISA (activation, Figure S3A); type: biochemical
[6] = target: T1, Sirt5; assay: X-ray crystal structure ([…] Å, ternary with FdL1 peptide; ligand occupancy […]), plus deacetylase activation assays; type: binding

SMILES: O=c1c(O)c(-c2ccc(O)c(O)c2)oc2cc(O)ccc12 [fisetin]
- ELISA-based deacetylation assay (weak inhibition, Figure S3B) [1]: only fisetin shows a weak inhibitory effect on Sirt5
- ELISA-based deacetylation assay (Figure S3B) [2]: only fisetin shows a weak inhibitory effect on Sirt5 and significant inhibition of Sirt3 in an ELISA-based deacetylation assay

SMILES: Oc1cc(O)cc(/C=C/c2ccc(O)c(O)c2)c1 [piceatannol]
- EC50 [3]: 70 ± 20 µM
- X-ray crystal structure (2.3 Å, ternary with FdL1 peptide), plus FdL2 deacetylat [4]: we also solved the crystal structure of Sirt3 in complex with FdL1-peptide and piceatannol

SMILES: OCCc1ccc(O)cc1 [tyrosol, 4-(2-hydroxyethyl)phenol]
- Cytochrome c deacetylation ELISA (activation, Figure S3A) [5]: activates Sirt5 in a Cytochrome c deacetylation assay (see below, Figure S3A)

SMILES: Oc1ccc(/C=C/c2cc(O)cc(O)c2)cc1 [resveratrol]
- X-ray crystal structure (2.6 Å, ternary with FdL1 peptide); ligand occupancy ~50% [6]: Co-ordinates and structure factors of Sirt5 in complex with FdL1-peptide and resveratrol
